{"source": "patent US20200289431A1", "about": "(priority 2019, published 2020)", "origin": "cited, not measured here", "key": {"[1]": {"target": "cannabinoid CB2 receptor (Homo sapiens, UniProt P34972)", "sequence (P34972 whole entry)": "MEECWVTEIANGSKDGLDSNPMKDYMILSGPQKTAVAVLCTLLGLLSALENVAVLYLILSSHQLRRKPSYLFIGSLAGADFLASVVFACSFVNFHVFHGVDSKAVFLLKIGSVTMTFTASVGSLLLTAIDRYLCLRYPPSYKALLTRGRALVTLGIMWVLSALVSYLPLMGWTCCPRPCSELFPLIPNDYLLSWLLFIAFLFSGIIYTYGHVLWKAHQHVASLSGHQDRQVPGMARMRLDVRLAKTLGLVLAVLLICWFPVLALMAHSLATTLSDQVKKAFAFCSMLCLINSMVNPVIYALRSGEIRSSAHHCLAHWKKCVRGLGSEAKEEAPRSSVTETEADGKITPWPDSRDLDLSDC"}, "[2]": {"settings": "in vivo"}}, "data": [{"smiles": "C=C(C)[C@@H]1CCC(C)=C[C@H]1c1c(O)cc(CCCCC)cc1O", "note": "[Cannabidiol]", "values": [{"measurement": "affinity for the cannabinoid CB2 receptor", "setting": "[1]", "result": "very low affinity"}, {"measurement": "elimination half-life", "setting": "[2]", "result": "18 to 32", "unit": "h"}]}]}
